“Also recorded” adds a separate entry of the source.

In assay [1] the target is T1, GalNAc-T4 (Homo sapiens, UniProt Q8N4A0).
T1 construct: amino acid residues 36–578 of the human GalNAc-T4; histidine tag (C); made in house; host or cells: Pichia pastoris SMD1168 (pPICZαA, secreted)
Kind of assay: STD-NMR binding / epitope mapping. Conditions: for STD-NMR signals of the GalNAc sugar protons: GalNAc moiety, UDP, pH 7.4; for STD-NMR signals of the GalNAc sugar protons / STD-NMR signals (peptide recognition): ~880 μM ligand, 13.5 μM GalNAc-T4, 298 K; for STD-NMR signals of the GalNAc sugar protons / STD-NMR signals (peptide recognition) / STD-NMR-derived epitope mapping of GalNAc moiety: in words; for STD-NMR signals (peptide recognition): in presence of UDP and MnCl2 (75 μM each), pH 7.4 uncorrected, TRIS-d11 D2O; for STD-NMR-derived epitope mapping of GalNAc moiety: normalized to the highest STD response. Here is the method: All NMR experiments were recorded on a Bruker Avance 600 MHz spectrometer equipped with a triple channel cryoprobe head. The^1H NMR resonances of the peptides 1–3 were completely assigned through standard 2D-TOCSY (30 and 80 ms mixing time) and 2D-NOESY experiments (400 ms mixing time). Solution conditions used for the NMR characterization studies were 1–3 mM (glyco)peptide, 25 mM perdeuterated tris-d11 in 90:10 H2O/D2O, 7.5 mM NaCl, and 1 mM DTT, uncorrected pH 7.4. The assignments were accomplished either at 278 or 298 K. The resonance of 2,2,3,3-tetradeutero-3-trimethylsilylpropionic acid (TSP) was used as a chemical shift reference in the^1H NMR experiments (δ TSP = 0 ppm). Peak lists for the 2D-TOCSY and 2D-NOESY spectra were generated by interactive peak picking using the computer aided resonance assignment (CARA) software.
Samples for STD experiments were prepared in perdeuterated 25 mM TRIS-d11 in deuterated water, 7.5 mM NaCl, and 1 mM DTT, uncorrected pH 7.4. STD-NMR experiments were performed at 298 K in the presence of 75 μM UDP, 75 μM MnCl2 with ~880 μM peptide (or GalNAc-O-Me) and 13.5 μM GalNAc-T4 giving a molar ratio of 65:1 peptide:GalNAc-T4.
The STD-NMR spectra were acquired with 1920 transients in a matrix with 64 k data points in t2 in a spectral window of 12335.53 Hz centered at 2819.65 Hz. An excitation sculpting module with gradients was employed to suppress the water proton signals. Selective saturation of the protein resonances (on resonance spectrum) was performed by irradiating at −1 ppm using a series of Eburp2.1000-shaped 90° pulses (50 ms, 1 ms delay between pulses) for a total saturation time of 2.0 s. For the reference spectrum (off resonance), the samples were irradiated at 100 ppm. Proper control experiments were performed with the ligands in the presence and absence of the protein in order to optimize the frequency for protein saturation (−1 ppm) and to ensure that the ligand signals were not affected. […] This nonspecific saturation was taken into account, by subtraction, when quantifying the STD-NMR data in the presence of the transferase. As well, a blank STD experiment with only the protein was also recorded. The substraction of this protein STD spectrum allowed eliminating the signal background of the protein. In all cases, to accomplish the STD-NMR-derived epitope mapping of each ligand, the STD-NMR total intensities were normalized with respect to the highest STD-NMR response. For Fig. 2b and Supplementary Fig. 1, the STD response of each amino acid corresponds to the average of STD percentages of all amino acid proton resonances that were measured with sufficient accuracy. The signal of the anomeric proton of as well as, the Hα protons of the Ala amino acids of glycopeptides could not be analyzed in the STD-NMR spectra due to their close proximity to the HDO resonance. Proton resonances, from Gly and Pro, appear in the same chemical shift region of the spectrum and were not discriminated.

The test system of assay [2] is GalNAc-T2 chimeras 1–3. Kind of assay: Specific activity / glycosylation preference of GalNAc-T2 chimeras 1-3. The assay is classed as biochemical. The settings on record: in words. Here is the method:
Specific activity determinations: GalNAc-T glycosylation reactions against (glyco)peptides 1–3 were performed with 75 mM sodium cacodylate, pH 6.5, 1 mM 2-mercaptoethanol, 10 mM MnCl2, 0.25 mM [^3H]-radiolabeled UDP-GalNAc (~6 × 10^8 DPM/µmole, American Radiolabeled Chemicals Inc.), and 1.4 mM (~1.25 mg/ml) of (glyco)peptide (from 4 mM stock in 1 mM TRIS, pH ~7) and varying concentrations (0.01 to 0.5 µM) of transferase (determined by OD280), giving a final reaction volumes of 20 µl in 100 µl capped Eppendorf tubes. […] Before performing time course experiments, the relative activity of each transferase was determined by trial and error against all three peptides to determine the optimal transferase concentration or incubation time that gave no more than 10% peptide glycosylation against the best substrate. […] Total UDP-[^3H]-GalNAc utilization (transfer to peptide substrate and transfer to water, i.e, hydrolysis) was determined by difference after scintillation counting (Beckman LS5801 scintillation counter) 1/20 of the sample before and after passage over Dowex 1 × 8. The extent of [^3H]-GalNAc transfer to peptide and the extent of hydrolysis was determined by Sephadex G10 gel filtration analysis, typically for the longest reaction time point, as previously described. […]

T1 sequence (Q8N4A0 36-578): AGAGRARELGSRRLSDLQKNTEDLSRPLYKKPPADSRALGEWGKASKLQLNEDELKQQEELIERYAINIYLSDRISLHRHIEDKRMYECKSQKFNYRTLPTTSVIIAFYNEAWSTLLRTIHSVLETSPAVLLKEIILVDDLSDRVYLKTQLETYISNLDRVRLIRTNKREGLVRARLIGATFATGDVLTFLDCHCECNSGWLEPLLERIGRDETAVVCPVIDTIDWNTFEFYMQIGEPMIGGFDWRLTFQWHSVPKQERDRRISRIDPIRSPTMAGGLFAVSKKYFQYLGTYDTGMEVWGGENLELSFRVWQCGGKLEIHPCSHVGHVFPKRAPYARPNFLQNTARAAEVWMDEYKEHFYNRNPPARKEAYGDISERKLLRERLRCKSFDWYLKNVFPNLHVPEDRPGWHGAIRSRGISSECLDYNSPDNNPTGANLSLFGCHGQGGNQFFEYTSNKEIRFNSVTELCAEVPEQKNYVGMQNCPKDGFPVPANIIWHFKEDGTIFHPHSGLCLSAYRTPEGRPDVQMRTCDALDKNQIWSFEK

With “AGAGTTPGPGAGAT*GA [Peptide 2, monoglycopeptide …*GA, T* denotes the Thr-O-GalNAc moiety]”, the “STD-NMR signals of the GalNAc sugar protons” value in assay [1] (MnCl2) was “unambiguous and more intense STD-NMR signals; also recorded: GalNAc protons receive much more saturation than the amino acid residues”. The “STD-NMR signals (peptide recognition)” value in assay [1] was “relatively weak STD-NMR signals were observed for the Ala and Thr methyl protons”. In addition, the “STD-NMR-derived epitope mapping of GalNAc moiety” value in assay [1] (298 K, pH 7.4, UDP, MnCl2) is “the highest STD response corresponded to the H2 proton of the GalNAc moiety followed by a modest STD of protons H4, H3, and N-acetyl group”.

As to “GAT*GAGAGAGTTPGPG [Peptide 3, monoglycopeptide GAT*…, T* denotes the Thr-O-GalNAc moiety]”, in assay [2], the “specific activity and kinetic parameters against monoglycopeptide 3, change” value is listed as “remained relative constant”. Further, the “STD-NMR signals of the GalNAc sugar protons” value in assay [1] (MnCl2) is “unambiguous and more intense STD-NMR signals; also recorded: GalNAc protons receive much more saturation than the amino acid residues”. The “STD response, GalNAc H3” value in assay [1] (H3 of GalNAc moiety, normalized to highest STD response, 298 K, pH 7.4, UDP, MnCl2) is reported as 72%. Besides, in assay [1] (H4 of GalNAc moiety, normalized to highest STD response, 298 K, pH 7.4, UDP, MnCl2), the “STD response, GalNAc H4” value came to 92%. The “STD-NMR signals (peptide recognition)” value in assay [1] was “relatively weak STD-NMR signals were observed for the Ala and Thr methyl protons; also recorded: no significant STD with the acceptor peptide residues”. Besides, the “STD-NMR-derived epitope mapping of GalNAc moiety” value in assay [1] (298 K, pH 7.4, UDP, MnCl2) was “H2, H4, and the N-acetyl group of the GalNAc moiety have the highest STD-NMR response closely followed by the H3 proton”.

The values are drawn from publication PMC5716993, “The interdomain flexible linker of the polypeptide GalNAc transferases dictates their long-range glycosylation preferences” (Nature Communications, 2017).
